Data reported in patent US11802127B2, “3,4-dihydro-2,7-naphthyridine-1,6(2H,7H)-diones as MEK inhibitors” (Pfizer Inc., priority 2021, dated 2023).
pIC50: −log10 of the molar value. Where a name gives a salt, the structure may show the parent alone.

The molecules below were run on ERK1/2(Thr202/Tyr204) phosphorylation (MEK-dependent) in A375 cells (assay: Cellular Phospho-p44/42 MAPK (Erk1/2) (Thr202/Tyr204) Assay). Details: Homo sapiens, A-375, 1-hour incubation, pERK1/2 (Thr202/Tyr204) In-Cell Western normalized to GAPDH.
Type: cell-based
Procedure: Inhibition of ERK1/2(Thr202/Tyr204) phosphorylation was determined by the following cellular assay, which comprises incubating cells with a compound for 1 hour and quantifying pERK signal by In-Cell Western on fixed cells and normalizing to GAPDH signal. A375 cells were obtained from the ATCC and grown in DMEM supplemented with 10% fetal bovine serum, penicillin/streptomycin, Glutamax®, non-essential amino acids, and sodium pyruvate. Cells were plated in 96-well plates at 30,000 cells/well and allowed to attach overnight at 37° C./5% CO2. Cells were treated with compounds prepared as a 10-point, 1:3 dilution series (range: 20 μM-0.05 nM; maximum concentration varied from 20 μM-1 μM), with a final DMSO concentration of 0.5%. Control wells contained either 0.5% DMSO alone (no inhibition control) or 1 μM of a potent control compound (complete inhibition control). After a 1-hour incubation, cells were fixed in 3.7% formaldehyde in dPBS (Dulbecco's phosphate-buffered saline) at room temperature for 20 minutes. Cells were then washed with dPBS and permeabilized in 100% MeOH at room temperature for 10 minutes. Following permeabilization, cells were washed in dPBS and incubated in LI-COR Blocking Buffer (LI-COR Biosciences, Cat #927-40000) for 1 hour or longer. Plates were then incubated with an antibody specific for the MEK-dependent ERK1/2 phosphorylation sites, threonine 202 and tyrosine 204 (Cell Signaling Technologies; Cat #9101), downstream of MEK in the MAP kinase signal transduction pathway, as well as GAPDH (Millipore; Cat #MAB374). pErk1/2 (Thr202/Tyr204) antibody was diluted in LI-COR blocking buffer containing 0.05% Tween-20 at 1:250; GAPDH was diluted at 1:2,500. The plates were incubated overnight at 4° C. After washing with PBS/0.05% Tween-20, the cells were incubated with fluorescently-labeled secondary antibodies (Anti-rabbit-Alexa Flour680, Invitrogen Cat #A21109; Anti-mouse-IRDye800CW, LI-COR Biosciences Cat #926-32210, both at 1:1000 dilution) for 1 hour. Cells were then washed, as above, and analyzed for fluorescence at both 680 and 800 nm wavelengths using the Odyssey CLx Infrared Imaging System (LI-COR Biosciences). Phosphorylated Erk1/2 (Thr202/Tyr204) signal was normalized to GAPDH signal for each well.

Row | SMILES | pIC50
1 | Cn1c(Nc2ccc(Br)cc2F)c2c(cc1=O)CCN(OCC1CC1)C2=O [Example 2, 8-((4-bromo-2-fluorophenyl)amino)-2-(cyclopropylmethoxy)-7-methyl-3,4-dihydro-2,7-naphthyridine-1,6(2H,7H)-dione] | 5.99
2 | Cn1c(Nc2ccc(Br)c(F)c2F)c2c(cc1=O)CCN(OCCO)C2=O [Example 11, 8-((4-bromo-2,3-difluorophenyl)amino)-2-(2-hydroxyethoxy)-7-methyl-3,4-dihydro-2,7-naphthyridine-1,6(2H,7H)-dione] | 6.70
3 | Cn1c(Nc2ccc(Br)c(Cl)c2F)c2c(cc1=O)CCN(OCCO)C2=O [Example 12, 8-((4-bromo-3-chloro-2-fluorophenyl)amino)-2-(2-hydroxyethoxy)-7-methyl-3,4-dihydro-2,7-naphthyridine-1,6(2H,7H)-dione] | 5.97
4 | Cn1c(Nc2ccc(C(F)(F)F)cc2F)c2c(cc1=O)CCN(OCCO)C2=O [Example 13, 8-((2-fluoro-4-(trifluoromethyl)phenyl)amino)-2-(2-hydroxyethoxy)-7-methyl-3,4-dihydro-2,7-naphthyridine-1,6(2H,7H)-dione] | 6.75
5 | COc1ccc(Nc2c3c(cc(=O)n2C)CCN(OCCO)C3=O)c(F)c1 [Example 16, 8-((2-fluoro-4-methoxyphenyl)amino)-2-(2-hydroxyethoxy)-7-methyl-3,4-dihydro-2,7-naphthyridine-1,6(2H,7H)-dione] | 6.56
6 | Cn1c(Nc2ccc(SC(F)(F)F)cc2F)c2c(cc1=O)CCN(OCCO)C2=O [Example 17, 8-((2-fluoro-4-((trifluoromethyl)thio)phenyl)amino)-2-(2-hydroxyethoxy)-7-methyl-3,4-dihydro-2,7-naphthyridine-1,6(2H,7H)-dione] | 6.59
7 | CC(=O)c1ccc(Nc2c3c(cc(=O)n2C)CCN(OCCO)C3=O)c(F)c1 [Example 20, 8-((4-acetyl-2-fluorophenyl)amino)-2-(2-hydroxyethoxy)-7-methyl-3,4-dihydro-2,7-naphthyridine-1,6(2H,7H)-dione] | 6.20
8 | Cn1c(Nc2ccc(OC(F)(F)F)cc2F)c2c(cc1=O)CCN(OCCO)C2=O [Example 24, 8-((2-fluoro-4-(trifluoromethoxy)phenyl)amino)-2-(2-hydroxyethoxy)-7-methyl-3,4-dihydro-2,7-naphthyridine-1,6(2H,7H)-dione] | 6.33
9 | Cn1c(Nc2ccc(I)cc2F)c2c(cc1=O)CCN(OC(C)(C)C)C2=O [Example 30, 2-(tert-butoxy)-8-((2-fluoro-4-iodophenyl)amino)-7-methyl-3,4-dihydro-2,7-naphthyridine-1,6(2H,7H)-dione] | 6.38
10 | C[C@@H](O)CON1CCc2cc(=O)n(C)c(Nc3ccc(Br)cc3F)c2C1=O [Example 34, (R)-8-((4-bromo-2-fluorophenyl)amino)-2-(2-hydroxypropoxy)-7-methyl-3,4-dihydro-2,7-naphthyridine-1,6(2H,7H)-dione] | 6.68
11 | Cc1c2c(c(Nc3ccc(Br)cc3F)n(C)c1=O)C(=O)N(OC[C@@H](C)O)CC2 [Example 35, (R)-8-((4-bromo-2-fluorophenyl)amino)-2-(2-hydroxypropoxy)-5,7-dimethyl-3,4-dihydro-2,7-naphthyridine-1,6(2H,7H)-dione] | 6.64
12 | Cn1c(Nc2ccccc2F)c2c(c(I)c1=O)CCN(OCCO)C2=O [Example 41, 8-((2-fluorophenyl)amino)-2-(2-hydroxyethoxy)-5-iodo-7-methyl-3,4-dihydro-2,7-naphthyridine-1,6(2H,7H)-dione] | 7.13
13 | Cc1c2c(c(Nc3ccccc3F)n(C)c1=O)C(=O)N(OCCO)CC2Br (centres unmarked) [Example 43, 4-bromo-8-((2-fluorophenyl)amino)-2-(2-hydroxyethoxy)-5,7-dimethyl-3,4-dihydro-2,7-naphthyridine-1,6(2H,7H)-dione] | 6.81
14 | CCCc1ccc(Nc2c3c(cc(=O)n2C)CCNC3=O)c(F)c1 [Example 54, 8-((2-fluoro-4-propylphenyl)amino)-7-methyl-3,4-dihydro-2,7-naphthyridine-1,6(2H,7H)-dione] | 6.78
15 | Cc1c2c(c(Nc3ccc(OC(F)F)cc3F)n(C)c1=O)C(=O)NCC2 [Example 58, 8-((4-(difluoromethoxy)-2-fluorophenyl)amino)-5,7-dimethyl-3,4-dihydro-2,7-naphthyrdine-1,6(2H,7H)-dione] | 7.35
16 | Cn1c(Nc2ccc(Br)cc2Cl)c2c(cc1=O)CCNC2=O [Example 59, 8-((4-bromo-2-chlorophenyl)amino)-7-methyl-3,4-dihydro-2,7-naphthyridine-1,6(2H,7H)-dione] | 7.14
17 | Cn1c(Nc2ccc(Br)cc2F)c2c(cc1=O)CCN(CCO)C2=O [Example 60, 8-((4-bromo-2-fluorophenyl)amino)-2-(2-hydroxyethyl)-7-methyl-3,4-dihydro-2,7-naphthyridine-1,6(2H,7H)-dione trifluoroacetate] | 6.29
18 | CSc1ccc(Nc2c3c(cc(=O)n2C)CCN(OCC(F)F)C3=O)c(F)c1 [Example 63, 2-(2,2-difluoroethoxy)-8-((2-fluoro-4-(methylthio)phenyl)amino)-7-methyl-3,4-dihydro-2,7-naphthyridine-1,6(2H,7H)-dione] | 6.94
19 | Cn1c(Nc2ccc(Br)cc2F)c2c(cc1=O)C(c1ccccc1)CNC2=O (centres unmarked) [Example 64, 8-((4-bromo-2-fluorophenyl)amino)-7-methyl-4-phenyl-3,4-dihydro-2,7-naphthyridine-1,6(2H,7H)-dione] | 8.70

What follows are molecules tested against T1, BCRP (hBCRP) (Homo sapiens, UniProt Q9UNQ0) (assay: Efflux ratio in BCRP transfected MDCKII canine P-gp knockout cells). Details: Papp(B−A)/Papp(A−B), read-out: Efflux ratio MDCKII-hBCRP knock-in,canine pg-P KO.
T1 construct: expressed in transfected cells; host or cells: MDCKII (canine kidney) cells, canine P-gp knockout, transfected with BCRP
T1 sequence (Q9UNQ0 1-655): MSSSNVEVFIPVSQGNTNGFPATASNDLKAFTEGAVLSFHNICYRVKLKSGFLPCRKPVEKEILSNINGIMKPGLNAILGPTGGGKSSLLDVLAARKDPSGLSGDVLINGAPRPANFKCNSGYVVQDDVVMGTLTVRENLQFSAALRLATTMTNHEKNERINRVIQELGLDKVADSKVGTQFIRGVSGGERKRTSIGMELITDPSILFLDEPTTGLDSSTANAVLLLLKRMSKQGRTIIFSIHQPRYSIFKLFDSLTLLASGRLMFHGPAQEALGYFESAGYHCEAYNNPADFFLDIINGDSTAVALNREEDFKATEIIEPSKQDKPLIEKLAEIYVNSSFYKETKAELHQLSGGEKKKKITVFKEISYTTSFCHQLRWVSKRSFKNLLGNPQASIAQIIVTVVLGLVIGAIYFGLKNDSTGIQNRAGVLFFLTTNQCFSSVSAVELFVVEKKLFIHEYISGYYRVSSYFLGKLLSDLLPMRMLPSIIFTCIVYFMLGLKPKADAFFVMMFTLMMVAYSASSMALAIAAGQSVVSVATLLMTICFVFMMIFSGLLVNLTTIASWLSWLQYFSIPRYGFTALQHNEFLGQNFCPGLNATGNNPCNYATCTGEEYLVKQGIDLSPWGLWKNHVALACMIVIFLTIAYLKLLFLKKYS
Type: in vitro ADME
Procedure: BCRP transfected MDCKII canine P-gp knockout cell line was cultured and plated according to manufacturer's recommendations.
Both positive and negative controls were used to assess functionality of P-gp or BCRP efflux in the assays. Stock solutions for assay controls and the test article were prepared in DMSO for final test concentrations of 10 and 1 μM, respectively. Final organic concentration in the assay was 1%. All dosing solutions contained 10 μM lucifer yellow to monitor LLC-PK1 or MDCKII cell monolayer integrity.
For the apical to basolateral determination (A to B), 75 μL of the test article in transport buffer were added to the apical side of the individual transwells and 250 μL of basolateral media, without compound or lucifer yellow, were added to each well. For the basolateral to apical determination (B to A), 250 μL of test article in transport buffer were added to each well and 75 μL transport buffer, without compound or lucifer yellow, were added to each transwell. All tests were performed in triplicate, and each compound was tested for both apical to basolateral and basolateral to apical transport. The plates were incubated for 2 hours on a Lab-Line Instruments Titer Orbital Shaker (VWR, West Chester, PA) at 50 rpm and 37° C. with 5% CO2. All culture plates were removed from the incubator and 50 μL of media were removed from the apical and basolateral portion of each well and added to 150 μL of 1 μM labetalol in 2:1 acetonitrile (acetonitrile): H2O, v/v.
The plates were read using a Molecular Devices (Sunnyvale, CA) Gemini Fluorometer to evaluate the lucifer yellow concentrations at excitation/emission wavelengths of 425/535 nm. These values were accepted when found to be below 2% for apical to basolateral and 5% basolateral to apical flux across the MDR1-transfected LLC-PK1 or BCRP-transfected MDCKII cell monolayers. The plates were sealed and the contents of each well analyzed by LC-MS/MS. The compound concentrations were determined from the ratio of the peak areas of the compound to the internal standard (labetalol) in comparison to the dosing solution.
The LC-MS/MS system was comprised of an HTS-PAL autosampler (Leap Technologies, Carrboro, NC), an HP1200 HPLC (Agilent, Palo Alto, CA), and a MDS Sciex 4000 Q Trap system (Applied Biosystems, Foster City, CA). […] The total run time, including re-equilibration, for a single injection was 1.2 minutes. Mass spectrometric detection of the analytes was accomplished using the ion spray positive mode. Analyte responses were measured by multiple reaction monitoring (MRM) of transitions unique to each compound (the protonated precursor ion and selected product ions for each test article and m/z 329 to m/z 162 for labetalol, the internal standard).
An efflux ratio is calculated from the mean apical to basolateral (A−B) Papp data and basolateral to apical (B−A) Papp data: Efflux ratio=Papp(B−A)/Papp(A−B)

Row | SMILES | efflux ratio at 2 h, 1 μM
20 | Cn1c(Nc2ccc(Br)cc2F)c2c(cc1=O)C(c1ccccc1)CNC2=O (centres unmarked) [Example 64, 8-((4-bromo-2-fluorophenyl)amino)-7-methyl-4-phenyl-3,4-dihydro-2,7-naphthyridine-1,6(2H,7H)-dione] | 1.5
